For data set [1], the system named is CHIKV. Kind of data set: antiviral activity against CHIKV (VTR and EC90). The format is cell-based. The following applies: Chikungunya virus; for log reduction at 10 µM: read-out: VTR @ 10 μM (logs). The source says:
As used herein, “EC90,” is intended to refer to the concentration of a substance (e.g., a compound or a drug) that is required for 90% agonism of a biological process, or component of a process, including a protein, subunit, organelle, ribonucleoprotein, etc. In one aspect, an EC90 can refer to the concentration of a substance that is required for 90% agonism in vivo, as further defined elsewhere herein. In a further aspect, […].

Data set [2] can be described thus: cell cytotoxicity in a cell viability assay (CC50). Type of data set: cell-based. To be noted: concentration required for 50% cell survival. The text has this: As used herein, “CC50,” is intended to refer to the cell cytotoxicity to the concentration of a substance (e.g., a compound or a drug) that is required for 50% cell survival in a cell viability assay in vitro.

Turning to `CSc1ncccc1C(=O)Nc1nc(-c2cccc(-c3ccc(CN)cc3)c2)cs1` [Compound 26, N-(4-(4′-(aminomethyl)-[1,1′-biphenyl]-3-yl)thiazol-2-yl)-2-(methylthio)nicotinamide], in data set [1], the EC90 was determined as 750 nM and the log reduction at 10 µM turned out to be 8.75. This molecule also had a CC50 in data set [2] of over 40 µM.

On to `CSc1ncccc1C(=O)Nc1nc(-c2cccc(Nc3ccc(C#N)cc3)c2)cs1` [Compound 37, N-(4-(3-((4-Cyanophenyl)amino)phenyl)thiazol-2-yl)-2-(methylthio)nicotinamide], for which, in data set [1], the EC90 was determined as 450 nM and the log reduction at 10 µM worked out at 8.68. In data set [2], this molecule returned a CC50 of over 40 µM.

For `COc1ccc(-c2ccc(C#N)cc2)cc1-c1csc(NC(=O)c2cccnc2SC)n1` [Compound 18, N-(4-(4′-Cyano-4-methoxy-[1,1′-biphenyl]-3-yl)thiazol-2-yl)-2-(methylthio)nicotinamide], the log reduction at 10 µM in data set [1] worked out at 1.73. This molecule showed a CC50 in data set [2] of over 40 µM.

Regarding `CSc1ncccc1C(=O)Nc1nc(-c2cncc(-c3ccc(C#N)cc3)c2)cs1` [Compound 12, N-(4-(5-(4-Cyanophenyl)pyridin-3-yl)thiazol-2-yl)-2-(methylthio)nicotinamide], the log reduction at 10 µM in data set [1] is under 1. In addition, in data set [2], the half-maximal cytotoxic concentration (CC50) is over 40 µM.

Consider `CSc1ncccc1C(=O)Nc1nc(-c2cc(Nc3ccc(C#N)cc3)cc(N3CCOCC3)c2)cs1` [Compound 47, N-(4-(3-((4-cyanophenyl)amino)-5-morpholinophenyl)thiazol-2-yl)-2-(methylthio)nicotinamide], for which, in data set [1], it took 100 nM to reach the 90% level (EC90) and the log reduction at 10 µM stood at 5.14. Also, the CC50 in data set [2] was over 40 µM.

For `CSc1ncccc1C(=O)Nc1nc(-c2cccc(N3CCN(S(C)(=O)=O)CC3)c2)cs1` [Compound 33, N-(4-(3-(4-(methylsulfonyl)piperazin-1-yl)phenyl)thiazol-2-yl)-2-(methylthio)nicotinamide], the log reduction at 10 µM in data set [1] turned out to be 2.04. This molecule gave a CC50 in data set [2] of over 40 µM.

On to `CSc1ncccc1C(=O)Nc1nc(-c2cc(Cl)cc(Nc3ccc(C#N)cc3)c2)cs1` [Compound 49, N-(4-(3-chloro-5-((4-cyanophenyl)amino)phenyl)thiazol-2-yl)-2-(methylthio)nicotinamide], for which, in data set [1], it took 210 nM to reach the 90% level (EC90) and the log reduction at 10 µM amounted to 5.84. In addition, the CC50 in data set [2] was over 40 µM.

For `COC1CCC(C(=O)Nc2nc(-c3cccc(Nc4ccc(C#N)cc4)c3)cs2)CC1` (centres unmarked) [Compound 50, N-(4-(3-((4-cyanophenyl)amino)phenyl)thiazol-2-yl)-4-methoxycyclohexane-1-carboxamide], in data set [1], the EC90 came out at 100 nM and the log reduction at 10 µM came to 4.53. In data set [2], this molecule returned a CC50 of 12.4 µM.

`COc1c(F)cc(C(=O)Nc2nc(-c3cccc(-c4ccc(C#N)cc4)c3)cs2)cc1F` [Compound 10, N-(4-(4′-Cyano-[1,1′-biphenyl]-3-yl)thiazol-2-yl)-3,5-difluoro-4-methoxybenzamide]: in data set [1], it took 310 nM to reach the 90% level (EC90) and the log reduction at 10 µM was found to be 7.6. In data set [2], this molecule came in with a CC50 of over 30 µM.

Turning to `CSc1ncccc1C(=O)Nc1nc(-c2cccc(-c3cccc(C#N)c3)c2)cs1` [Compound 5, N-(4-(3′-Cyano-[1,1′-biphenyl]-3-yl)thiazol-2-yl)-2-(methylthio)nicotinamide], in data set [1], the EC90 came out at 98 nM and the log reduction at 10 µM was found to be 5.25. In data set [2], this molecule yielded a CC50 of over 40 µM.

On to `CSc1ncccc1C(=O)Nc1nc(-c2cccc(-c3ccc(C(=O)O)cc3)c2)cs1` [Compound 24, 3′-(2-(2-(Methylthio)nicotinamido)thiazol-4-yl)-[1,1′-biphenyl]-4-carboxylic acid], for which the log reduction at 10 µM in data set [1] was 1.49. Moreover, the CC50 in data set [2] was over 40 µM.

`N#Cc1ccc(Nc2cccc(-c3csc(NC(=O)C45CC(C#N)(C4)C5)n3)c2)cc1` [Compound 52, 3-cyano-N-(4-(3-((4-cyanophenyl)amino)phenyl)thiazol-2-yl)bicyclo[1.1.1]pentane-1-carboxamide]: in data set [1], it took 1500 nM to reach the 90% level (EC90) and the log reduction at 10 µM turned out to be 5.58. Also, it took 9 µM to reach half-maximal cytotoxicity in data set [2] (CC50).

Broadly, the EC90 is the concentration at which the effect reaches the 90% level. Broadly, the CC50 is the concentration at which the toxic effect on the cells reaches its halfway point. A lower CC50 goes with greater toxicity to the cells.

For the origin of these results see US20200399264A1, “4-SUBSTITUTED-2-THIAZOLE AMIDES AS ANTIVIRAL AGENTS” (Southern Research Institute, priority 2019, published 2020).
